Source: US20120087864A1, “METHOD FOR DIAGNOSING AND/OR EVALUATING RETINAL DISEASE” (R-TECH UENO, LTD., priority 2010, published 2012)
Values joined by “and” are separate entries in the source; they are usually repeats but may differ in a detail not shown here. Equal values may be shown once. Marks after values point to notes of the source that are not given here.

How the values were obtained:
Format in all cases: in vivo, human
[1] = tested on: patient with retinal pigmentosa; assay: Humphrey visual field test (SITA-Standard, central 10-2) retinal sensitivity (MD value), 24-week placebo-controlled clinical test; conditions: 0.15% solution twice a day; for change value of Humphrey central 10-2 retina sensitivity (MD value): change from before treatment
Description: (§1) One drop or two drops of isopropyl unoprostone 0.15 w/v % ophthalmic solution per one time was administered to each eye of patient with retinal pigmentosa daily for 24 weeks, and the following items were examined. 112 patients participated this test.
Change in retinal sensitivity through Humphrey visual field test (SITA-Standard, 10-2)
(§2) The above ophthalmic solution of Formulation Example 1 was used as the test drug.
(§3) (1) Dosage regimen: Instillation twice* a day, one drop of a first solution was instilled at the time of first instillation and, after 5 minute, one drop of a second solution was instilled into both eyes.
Since subjective symptoms depend on one eye having better visual function than the other, when both eyes satisfy the all selection criteria, the eye having better desimal visual acuity was adopted as the eye for evaluation of efficacy. When both eyes have the same desimal visual acuity, right eye was adopted as the eye for evaluation of efficacy
Between-group comparison of the average of Humphrey central 10-2 retina sensitivity (MD value) was made every measurement time point.
Between-group comparison of the change value of Humphrey central 10-2 retina sensitivity (MD value) was made every measurement time point.

[2] = tested on: patient with retinal pigmentosa; assay: MP-1 microperimeter retinal sensitivity of central 2 degrees (4 points); conditions: 0.15% solution twice a day; for average retinal sensitivity by MP-1 in central 2 degrees (4 points), change value: change from 0 week
Description: as §1
Using an combined equipment having a retinal camera and an automatic perimeter, retinal sensitivity of measurement points set preliminarily on the eyeground retina was automatically measured. The feature of MP-1 is that tracking can be automatically performed according to the eye movement, and retinal sensitivity of a local part of the eyeground can be accurately measured by correcting a gap detected during a test. Also, it is possible to serially measure retinal sensitivity at the same site of the eyeground since a test can be performed at the same measurement point of retina as that of the previous test.
Change in retinal sensitivity of central 2 degrees (4 points) through MP-1 microperimeter
The value of the average retinal sensitivity by MP-1 in central 2 degrees (4 points) changed from the value at the time of completion of the pre-observation period (0 week) at each measurement time point (time of hospital visiting of subject) was calculated in each eye.
The retinal sensitivity by MP-1 central 2 degrees (4 points) was measured at a pre-observation period, after 4 weeks, after 8 weeks, after 16 weeks and after 24 weeks. It is estimated that variation (error) due to seasonal variation during measuring for 24 weeks may arise. For the purpose of absolutely evaluating the effect of the drug, in order to grasp an overview including negation of both improvement and aggravation, between-group comparison was made by adding up of a difference (change value) with the pre-observation period in four measurements.

[3] = tested on: patient with retinal pigmentosa; assay: Humphrey visual field test, retinal sensitivity of central 2 degrees (4 points); conditions: 0.15% solution twice a day
Description: as §1
Change in retinal sensitivity of central 2 degrees (4 points) through Humphrey visual field test
as §2, §3
Between-group comparison of the change value of Humphrey central 4 points retinal sensitivity was made every measurement time point.

[4] = tested on: patient with retinal pigmentosa; assay: Intraocular pressure (IOP) over the 24-week measurement period; conditions: one drop and two drop groups
[5] = tested on: patient with retinal pigmentosa; assay: NEI VFQ-25 (Compo 8) vision-related QOL questionnaire; conditions: 0.15% solution twice a day, after 24 weeks minus 0 week
Description: as §1
Change in The 25-Item National Eye Institute Visual Function Questionnaire (NEI VFQ-25) Compo 8:
Original NEI VFQ-25 (The 25-item National Eye Institute Visual Function Questionnaire) for evaluation of vision-related QOL of a patient is constituted from visual functions in various living scenes, and 12 subscales (questions of 25 items) for measurement of the degree of restrictions of vision-related physical, mental and social living scenes. In the present test, a questionnaire of Compo 8 constituted from 8 subscales with exception of general health, driving, peripheral vision and ocular pain among the subscales was used. At the time of completion of the pre-observation period (0 week) and completion of the treatment (24 weeks), a change value of score (the value after 24 weeks minus the value at 0 week) was evaluated.

[6] = tested on: patient with retinal pigmentosa; assay: Safety evaluation: side effects until completion of medication (24 weeks)
From the text: Safety evaluation (1. Adverse event, 2. Side effect, 3. Ophthalmologic examination, Vital signs, Clinical examination result)
A list of items of the side effect confirmed until completion of medication (24 weeks) in Test Example 1, and the number of appearance cases and the appearance ratio of the side effect of each group are shown in Table 10.

[7] = one drop per time group, after 4 weeks
[8] = one drop per time group, after 8 weeks
[9] = one drop per time group, after 16 weeks
[10] = one drop per time group, after 24 weeks
[11] = two drops per time group, after 4 weeks
[12] = two drops per time group, after 8 weeks
[13] = two drops per time group, after 16 weeks
[14] = two drops per time group, after 24 weeks

SMILES: CCCCCCCC(=O)CC[C@@H]1[C@@H](C/C=C\CCCC(=O)OC(C)C)[C@@H](O)C[C@H]1O [isopropyl unoprostone, (+)-isopropyl (Z)-7-[(1R,2R,3R,5S)-3,5-dihydroxy-2-(3-oxodecyl)cyclopentyl]hept-5-enoate]
- average of Humphrey central 10-2 retina sensitivity (MD value) ([1]; one drop per time group, 0 week (before treatment)): −14.116 dB
- average of Humphrey central 10-2 retina sensitivity (MD value) [1, 7]: −13.952 dB
- average of Humphrey central 10-2 retina sensitivity (MD value) [1, 8]: −14.074 dB
- change value of Humphrey central 10-2 retina sensitivity (MD value) [1, 8]: 0.042 dB
- average of Humphrey central 10-2 retina sensitivity (MD value) [1, 9]: −13.768 dB
- change value of Humphrey central 10-2 retina sensitivity (MD value) [1, 9]: 0.136 dB
- average of Humphrey central 10-2 retina sensitivity (MD value) [1, 10]: −13.699 dB
- change value of Humphrey central 10-2 retina sensitivity (MD value) [1, 10]: 0.417 dB
- average of Humphrey central 10-2 retina sensitivity (MD value) ([1]; two drops per time group, 0 week (before treatment)): −18.376 dB
- average of Humphrey central 10-2 retina sensitivity (MD value) [1, 11]: −17.671† dB
- change value of Humphrey central 10-2 retina sensitivity (MD value) [1, 11]: 0.831 dB
- average of Humphrey central 10-2 retina sensitivity (MD value) [1, 12]: −17.810 dB
- change value of Humphrey central 10-2 retina sensitivity (MD value) [1, 12]: 0.696* dB
- average of Humphrey central 10-2 retina sensitivity (MD value) [1, 13]: −17.341† dB
- change value of Humphrey central 10-2 retina sensitivity (MD value) [1, 13]: 0.777 dB
- average of Humphrey central 10-2 retina sensitivity (MD value) [1, 14]: −17.411† dB
- change value of Humphrey central 10-2 retina sensitivity (MD value) [1, 14]: 0.891 dB
- MP-1 central 2 degrees (4 points) average retinal sensitivity: aggravation by 4 dB or more, number of cases (%) [2, 10]: 6 (15.8%) cases (%)
- MP-1 central 2 degrees (4 points) average retinal sensitivity: improvement by 4 dB or more, number of cases (%) [2, 10]: 3 (7.9%) cases (%)
- MP-1 central 2 degrees (4 points) average retinal sensitivity: no change, number of cases (%) [2, 10]: 29 (76.3%) cases (%)
- average retinal sensitivity by MP-1 in central 2 degrees (4 points), change value [2, 11]: 0.5 dB
- average retinal sensitivity by MP-1 in central 2 degrees (4 points), change value [2, 12]: 1.013 dB
- average retinal sensitivity by MP-1 in central 2 degrees (4 points), change value [2, 13]: 0.713 dB
- MP-1 central 2 degrees (4 points) average retinal sensitivity: aggravation by 4 dB or more, number of cases (%) [2, 14]: 1 (2.6%) cases (%) and 1 (2.9%)* cases (%)
- MP-1 central 2 degrees (4 points) average retinal sensitivity: improvement by 4 dB or more, number of cases (%) [2, 14]: 6 (17.1%) cases (%)
- MP-1 central 2 degrees (4 points) average retinal sensitivity: no change, number of cases (%) [2, 14]: 28 (80.0%) cases (%)
- average retinal sensitivity by MP-1 in central 2 degrees (4 points), change value [2, 14]: 1.1^† dB
- average retinal sensitivity by MP-1 in central 2 degrees (4 points), comparison of change value ([2]; two drops per time group, change values of four measurements (4, 8, 16, 24 weeks) added up): 0.826* dB
- change value of Humphrey central 4 points retinal sensitivity [3, 7]: −0.178
- change value of Humphrey central 4 points retinal sensitivity [3, 8]: 0.158
- change value of Humphrey central 4 points retinal sensitivity [3, 9]: 0.336
- change value of Humphrey central 4 points retinal sensitivity [3, 10]: 0.334
- change value of Humphrey central 4 points retinal sensitivity [3, 11]: 0.714
- change value of Humphrey central 4 points retinal sensitivity [3, 12]: 0.821
- change value of Humphrey central 4 points retinal sensitivity [3, 13]: 1.253*^†1
- change value of Humphrey central 4 points retinal sensitivity [3, 14]: 2.009 and 2.009*^†1†2
- decrease of intraocular pressure (IOP) as compared to the placebo [4]: greater decrease in IOP
- change value of VFQ-25 subscale "vision-related social function" ([5]; one drop per time group): −2.3
- change value of VFQ-25 summary score ([5]; one drop per time group): −1.1
- change value of VFQ-25 subscale "vision-related social function" ([5]; two drops per time group): 6.6*^†
- change value of VFQ-25 summary score ([5]; two drops per time group): 2.69^†
- serious side effect ([6]; any group (one drop and two drops per time)): no serious side effect
- All side effects, number of appearance cases ([6]; one drop per time (39 cases)): 28 (71.8%) cases (%) and 28 (71.8) cases (%)
- Bloodshot eyes, number of appearance cases ([6]; one drop per time (39 cases)): 1 (2.6) cases (%)
- Bloodshot, number of appearance cases ([6]; one drop per time (39 cases)): 0 (0.0) cases (%)
- Dry eye, number of appearance cases ([6]; one drop per time (39 cases)): 1 (2.6) cases (%)
- Eye abnormality, number of appearance cases ([6]; one drop per time (39 cases)): 0 (0.0) cases (%)
- Eye irritation, number of appearance cases ([6]; one drop per time (39 cases)): 9 (23.1) cases (%)
- Eye pruritus, number of appearance cases ([6]; one drop per time (39 cases)): 1 (2.6) cases (%)
- Eye swelling, number of appearance cases ([6]; one drop per time (39 cases)): 1 (2.6) cases (%)
- Foreign body sensation, number of appearance cases ([6]; one drop per time (39 cases)): 1 (2.6) cases (%)
- Hypertrichosis, number of appearance cases ([6]; one drop per time (39 cases)): 0 (0.0) cases (%)
- Irritation of applied site, number of appearance cases ([6]; one drop per time (39 cases)): 13 (33.3) cases (%)
- Macular edema, number of appearance cases ([6]; one drop per time (39 cases)): 1 (2.6) cases (%)
- Macular hole, number of appearance cases ([6]; one drop per time (39 cases)): 0 (0.0) cases (%)
- Punctate keratitis, number of appearance cases ([6]; one drop per time (39 cases)): 4 (10.3) cases (%)
- All side effects, number of appearance cases ([6]; two drops per time (38 cases)): 21 (55.3%) cases (%) and 21 (55.3) cases (%)
- Bloodshot eyes, number of appearance cases ([6]; two drops per time (38 cases)): 0 (0.0) cases (%)
- Bloodshot, number of appearance cases ([6]; two drops per time (38 cases)): 1 (2.6) cases (%)
- Dry eye, number of appearance cases ([6]; two drops per time (38 cases)): 0 (0.0) cases (%)
- Eye abnormality, number of appearance cases ([6]; two drops per time (38 cases)): 1 (2.6) cases (%)
- Eye irritation, number of appearance cases ([6]; two drops per time (38 cases)): 4 (10.5) cases (%)
- Eye pruritus, number of appearance cases ([6]; two drops per time (38 cases)): 1 (2.6) cases (%)
- Eye swelling, number of appearance cases ([6]; two drops per time (38 cases)): 0 (0.0) cases (%)
- Foreign body sensation, number of appearance cases ([6]; two drops per time (38 cases)): 0 (0.0) cases (%)
- Hypertrichosis, number of appearance cases ([6]; two drops per time (38 cases)): 1 (2.6) cases (%)
- Irritation of applied site, number of appearance cases ([6]; two drops per time (38 cases)): 13 (34.2) cases (%)
- Macular edema, number of appearance cases ([6]; two drops per time (38 cases)): 0 (0.0) cases (%)
- Macular hole, number of appearance cases ([6]; two drops per time (38 cases)): 0 (0.0) cases (%)
- Punctate keratitis, number of appearance cases ([6]; two drops per time (38 cases)): 4 (10.5) cases (%)
